Square brackets hold non-standard residues; d marks the D form. Peptide text beside a SMILES is read from it. * marks the point of attachment. ξ: configuration not given here. 1Nal = N[C@@H](Cc1cccc2ccccc12)C(=O)O; hPhe = N[C@@H](CCc1ccccc1)C(=O)O; ξPhg = NC(C(=O)O)c1ccccc1; ξTle = CC(C)(C)C(N)C(=O)O; Cbz = O=C(OCc1ccccc1)*

The nature of data set [1]: Ratio of rate of catalysis to Michaelis-Menten constant was determined.
The target in data set [2] is T1, Calpain-1 catalytic subunit (Homo sapiens) (UniProt P07384).
T1 sequence (whole entry): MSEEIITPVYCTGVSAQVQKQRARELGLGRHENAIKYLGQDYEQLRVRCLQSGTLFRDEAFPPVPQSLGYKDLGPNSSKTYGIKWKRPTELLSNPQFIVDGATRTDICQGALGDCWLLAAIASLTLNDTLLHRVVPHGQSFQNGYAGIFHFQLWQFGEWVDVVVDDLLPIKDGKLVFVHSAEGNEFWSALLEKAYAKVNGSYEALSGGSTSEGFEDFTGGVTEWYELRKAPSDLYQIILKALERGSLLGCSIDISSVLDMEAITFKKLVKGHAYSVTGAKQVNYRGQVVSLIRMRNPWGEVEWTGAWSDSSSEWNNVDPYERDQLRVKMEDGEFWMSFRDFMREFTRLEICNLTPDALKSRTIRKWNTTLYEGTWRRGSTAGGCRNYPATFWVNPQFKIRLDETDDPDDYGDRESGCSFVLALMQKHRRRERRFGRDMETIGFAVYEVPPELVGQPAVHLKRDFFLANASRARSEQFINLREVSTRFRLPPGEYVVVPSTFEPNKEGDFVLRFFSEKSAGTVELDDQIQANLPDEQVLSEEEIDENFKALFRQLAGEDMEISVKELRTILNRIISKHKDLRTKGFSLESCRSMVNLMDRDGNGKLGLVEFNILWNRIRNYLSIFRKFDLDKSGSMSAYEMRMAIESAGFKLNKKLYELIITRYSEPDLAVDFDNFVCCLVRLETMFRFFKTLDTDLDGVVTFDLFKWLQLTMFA
Kind of data set: Rate of catalysis as a measure of ability to serve as substrate of Calpain.

A further data set concerns the target Calpain 1 (Homo sapiens, UniProt P07384). Kind of data set: Inhibition of Calpain 1 by [3H]acetyl-casein assay. In kind it is protein-complex assay.
Data set [3] concerns the target T1, Calpain-1 catalytic subunit (Homo sapiens). Kind of data set: Compound was tested for apparent second order rate constant for inhibition of calpain I in an endpoint (non-continuous) calpain assay.
Another data set concerns the target Calpain 1 (Homo sapiens) (UniProt P04632+P07384). Kind of data set: Apparent second order rate constant for inhibition of calpain-1 by fluorogenic assay. In kind it is protein-complex assay.
Substrate in data set [4]: Cc1cc(=O)oc2cc(NC(=O)[C@H](CCCN=C(N)N)NC(=O)[C@H](CC(C)C)NC(=O)OCc3ccccc3)ccc12
Kind of data set: (§1) Michaelis-Menten kinetics value as a measure of ability to serve as substrate of Calpain.

Substrate in data set [5]: Cc1cc(=O)oc2cc(NC(=O)[C@@H](CCCCN)NC(=O)[C@H](CC(C)C)NC(=O)[C@@H](NC(=O)OC(C)(C)C)C(C)C)ccc12
The description is as §1.

Substrate in data set [6]: Cc1cc(=O)oc2cc(NC(=O)[C@H](NC(=O)[C@H](CC(C)C)NC(=O)[C@H](CC(C)C)NC(=O)CCC(=O)O)C(C)C)ccc12
The data set is described as §1.

Substrate in data set [7]: COc1ccc2cccc(NC(=O)[C@H](CCCN=C(N)N)NC(=O)[C@H](CC(C)C)NC(=O)OCc3ccccc3)c2c1
The data set is described as §1.

Substrate in data set [8]: COc1ccc2cccc(NC(=O)[C@@H](CCCN=C(N)N)NC(=O)[C@H](CC(C)C)NC(=O)[C@@H](NC(=O)OCc3ccccc3)C(C)C)c2c1
The description is as §1.

Substrate in data set [9]: CC(C)C[C@H](NC(=O)OCc1ccccc1)C(=O)N[C@@H](CCCN=C(N)N)C(=O)Nc1ccc2c(C(F)(F)F)cc(=O)oc2c1
The data set is described as §1.

Substrate in data set [10]: Cc1cc(=O)oc2cc(NC(=O)[C@@H](Cc3ccc(O)cc3)NC(=O)[C@H](NC(=O)[C@H](CC(C)C)NC(=O)[C@H](CC(C)C)NC(=O)CCC(=O)O)C(C)C)ccc12
The description is as §1.

Calpain 1, sequence (P04632 whole entry, one chain of several): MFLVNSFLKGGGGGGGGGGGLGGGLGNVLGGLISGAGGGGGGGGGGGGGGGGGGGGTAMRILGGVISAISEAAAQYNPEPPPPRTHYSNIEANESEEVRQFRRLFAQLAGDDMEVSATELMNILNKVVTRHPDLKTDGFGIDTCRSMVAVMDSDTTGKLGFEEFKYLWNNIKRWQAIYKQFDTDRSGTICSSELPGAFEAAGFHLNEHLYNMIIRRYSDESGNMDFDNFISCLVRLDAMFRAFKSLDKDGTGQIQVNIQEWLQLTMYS

For the molecule `Cc1cc(=O)oc2cc(NC(=O)[C@H](NC(=O)[C@H](CC(C)C)NC(=O)[C@H](CC(C)C)NC(=O)CCC(=O)O)C(C)C)ccc12`, in data set [1], the Ratio is 141 M⁻¹ s⁻¹. The molecule further came in with a k cat in data set [2] of 0.29 s⁻¹. For the molecule `O=C[C@H](Cc1ccccc1)NC(=O)[C@H](CCc1ccccc1)NC(=O)OCc1ccccc1` (Cbz-[hPhe]-Phe-aldehyde), the IC50 at Calpain 1 is 270 nM. On the same count and under the same terms, then `CC(C)[C@H](NC(=O)OCc1ccccc1)C(=O)N[C@H](C=O)Cc1ccc(O)cc1` (Cbz-Val-Tyr-aldehyde), with 25 nM. The same measure, in the same setting: then `CC(C)(C)C(NC(=O)OCc1ccccc1)C(=O)N[C@H](C=O)Cc1ccccc1` (stereo partly specified) (Cbz-[ξTle]-Phe-aldehyde), with 500 nM; and `CC(C)C[C@H](NC(=O)OCc1ccccc1)C(=O)N[C@H](C=O)Cc1ccccc1` (Cbz-Leu-Phe-aldehyde), with 35 nM; and `CC(C)C[C@H](NC(=O)OCc1ccccc1)C(=O)N[C@H](C=O)Cc1ccc(O)cc1` (Cbz-Leu-Tyr-aldehyde), with 20 nM.

In turn, `COc1ccc(C[C@@H](C=O)NC(=O)[C@@H](NC(=O)OCc2ccccc2)C(C)C)cc1` (Cbz-Val-Tyr(Me)-aldehyde) came in with an IC50 against Calpain 1 of 30 nM. `O=C[C@H](Cc1ccccc1)NC(=O)C(NC(=O)OCc1ccccc1)c1ccccc1` (stereo partly specified) (Cbz-[ξPhg]-Phe-aldehyde) gave an IC50 at Calpain 1 of 100 nM. As for `COc1ccc2cccc(NC(=O)[C@H](CCCN=C(N)N)NC(=O)[C@H](CC(C)C)NC(=O)OCc3ccccc3)c2c1`, the Ratio in [1] amounted to 1400 M⁻¹ s⁻¹. For the same molecule, the k cat in data set [2] was 0.52 s⁻¹.

As to `Cc1cc(=O)oc2cc(NC(=O)[C@@H](Cc3ccc(O)cc3)NC(=O)[C@H](NC(=O)[C@H](CC(C)C)NC(=O)[C@H](CC(C)C)NC(=O)CCC(=O)O)C(C)C)ccc12`, the Ratio in [1] amounted to 262 M⁻¹ s⁻¹. Also, the k cat in data set [2] turned out to be 0.42 s⁻¹. Regarding `CC(C)[C@H](NC(=O)OCc1ccccc1)C(=O)N[C@H](C=O)CCc1ccccc1` (Cbz-Val-[hPhe]-aldehyde), the IC50 on Calpain 1 is 100 nM. On to `CC(C)C[C@H](NC(=O)[C@H]1O[C@@H]1C(=O)O)C(=O)NCCCCN=C(N)N`, for which the k obs / 1 is 7500 M⁻¹ s⁻¹ in data set [3] and 2500 M⁻¹ s⁻¹ at Calpain 1 (Homo sapiens). Molecule `CC(C)[C@H](NC(=O)OCc1ccccc1)C(=O)N[C@H](C=O)Cc1cccc2ccccc12` (Cbz-Val-[1Nal]-aldehyde) came in with an IC50 on Calpain 1 of 100 nM. Take `Cc1cc(=O)oc2cc(NC(=O)[C@H](CCCN=C(N)N)NC(=O)[C@H](CC(C)C)NC(=O)OCc3ccccc3)ccc12`: in [1], the Ratio is 105 M⁻¹ s⁻¹. For the same molecule, in data set [2], the k cat is 0.02 s⁻¹. On the same counts, the results for `CC(C)C[C@H](NC(=O)OCc1ccccc1)C(=O)N[C@@H](CCCN=C(N)N)C(=O)Nc1ccc2c(C(F)(F)F)cc(=O)oc2c1` are 153 M⁻¹ s⁻¹ and 0.07 s⁻¹. On the same counts, the results for `Cc1cc(=O)oc2cc(NC(=O)[C@@H](CCCCN)NC(=O)[C@H](CC(C)C)NC(=O)[C@@H](NC(=O)OC(C)(C)C)C(C)C)ccc12` are 83 M⁻¹ s⁻¹ and 0.49 s⁻¹.

Consider `O=C[C@H](Cc1ccccc1)NC(=O)[C@H](Cc1cccc2ccccc12)NC(=O)OCc1ccccc1` (Cbz-[1Nal]-Phe-aldehyde), for which, at Calpain 1, the IC50 was above 1000 nM.

B1: Calpain-1 catalytic subunit (Homo sapiens), P07384 (protein)
chain: MSEEIITPVYCTGVSAQVQKQRARELGLGRHENAIKYLGQDYEQLRVRCLQSGTLFRDEAFPPVPQSLGYKDLGPNSSKTYGIKWKRPTELLSNPQFIVDGATRTDICQGALGDCWLLAAIASLTLNDTLLHRVVPHGQSFQNGYAGIFHFQLWQFGEWVDVVVDDLLPIKDGKLVFVHSAEGNEFWSALLEKAYAKVNGSYEALSGGSTSEGFEDFTGGVTEWYELRKAPSDLYQIILKALERGSLLGCSIDISSVLDMEAITFKKLVKGHAYSVTGAKQVNYRGQVVSLIRMRNPWGEVEWTGAWSDSSSEWNNVDPYERDQLRVKMEDGEFWMSFRDFMREFTRLEICNLTPDALKSRTIRKWNTTLYEGTWRRGSTAGGCRNYPATFWVNPQFKIRLDETDDPDDYGDRESGCSFVLALMQKHRRRERRFGRDMETIGFAVYEVPPELVGQPAVHLKRDFFLANASRARSEQFINLREVSTRFRLPPGEYVVVPSTFEPNKEGDFVLRFFSEKSAGTVELDDQIQANLPDEQVLSEEEIDENFKALFRQLAGEDMEISVKELRTILNRIISKHKDLRTKGFSLESCRSMVNLMDRDGNGKLGLVEFNILWNRIRNYLSIFRKFDLDKSGSMSAYEMRMAIESAGFKLNKKLYELIITRYSEPDLAVDFDNFVCCLVRLETMFRFFKTLDTDLDGVVTFDLFKWLQLTMFA
Regarding B1, the Km in data set [4] came to 190 µM; in data set [5], 5900 µM; in data set [6], 200 µM; in [7], 370 µM; in [8] it was 100 µM; in data set [9], 460 µM. Moreover, the Km in [10] was found to be 160 µM.

These data come from ChEMBL document CHEMBL1128134, “Characterization of a continuous fluorogenic assay for calpain I. Kinetic evaluation of peptide aldehydes, halomethyl ketones and (acyloxy)methyl ketones as inhibitors of the enzyme” (Bioorg Med Chem Lett, 1995).
